US20190359653A1, “SELECTIVE PEPTIDE INHIBITORS OF FRIZZLED” (Genentech, Inc., priority 2016, published 2019)

Assays:
[1] = tested on: Herceptin; assay: spot phage ELISA against Herceptin (off-target); assay type: binding; conditions: Table 5; for HERCEPTIN S/W: signal minus noise (BSA); for HERCEPTIN S/N: signal to noise ratio
Experimental: Phage pools of linear peptide libraries (Stanger, K. et al. Allosteric peptides bind a caspase zymogen and mediate caspase tetramerization. Nat Chem Biol 8, 655-660 (2012)) were cycled through rounds of binding selections with hFZD7 CRD-Fc following standard protocols (Tonikian et al. (2007) Nat Protoc 2, 1368-1386). Herceptin (10 μM) was included in sorting solution to block potential Fc binders during all rounds of sorting. After four rounds of binding selection, individual phage clones were analyzed in a high-throughput spot phage ELISA using plate-immobilized FZD7 CRD-Fc as target or off-target for specificity test (hFZD8 CRD-Fc and Herceptin). To measure off-target affinity, duplicate phage particle were assayed against BSA to measure non-specific binding. Clones with a phage-binding signal >0.5 and signal-to-noise ratio >10 were considered to be positive clones and were subjected to DNA sequence analysis. General data handling was done using Microsoft Excel 2010 unless otherwise noted.
In order to investigate the role of FZD7 in intestinal stem cell function, experiments were performed to identify ligands that selectively bind FZD7 CRD. A naïve linear peptide library (4-16 amino acids in length) and a cyclic peptide library were screened via phage display against FZD7 CRD-Fc. Peptides found to bind FZD7 CRD-Fc were then screened via spot phage ELISA against FZD7 CRD-Fc, FZD8 CRD-Fc, and Herceptin to identify candidates that bind FZD7 CRD but not FZD8 CRD or herceptin. The amino acid sequences of candidate FZD7 CRD-binding linear peptides are shown in Table 3 below, and the amino acid sequences of candidate FZD7 CRD-binding cyclic peptides are shown in Table 4.
Briefly, sixty Fz7-21-derived peptides (see Table 5), each containing at least one random alanine and/or valine/and/or aspartic acid and/or serine substitution, were generated and screened via spot phage ELISA (i.e., as described above) against FZD7 CRD-Fc and Herceptin.

[2] = tested on: Wnt3a-mediated β-catenin signaling in HEK293-TB cells; assay type: cell-based

Substance | HERCEPTIN S/W [1] | HERCEPTIN S/N [1] | effect of N-terminal truncation on dFz7-21 activity ([2]; lacking the 2 N-terminal residues) | IC50 compared with dFz7-21 ([2]; text to Table 17)
57 (AAADDLAAWCDVMY) [compound 57] | 0.0 | 1.4 |  | 
58 (VASDDLEFWCHVMY) [compound 58] | 0.0 | 1.3 |  | 
59 (AAADDLEAWCAVMY) [compound 59] | 0.0 | 1.2 |  | 
60 (LAADDLESWCHVMY) [compound 60] | 0.0 | 1.2 |  | 
61 (APADDLASWCHVMY) [compound 61] | 0.0 | 1.3 |  | 
62 (VASDDLASWCHAMY) [compound 62] | 0.0 | 1.3 |  | 
63 (VPADDLASWCHVMY) [compound 63] | 0.0 | 1.2 |  | 
64 (APADDLEFWCHVVY) [compound 64] | 0.0 | 1.4 |  | 
65 (VPSDDLAFWCHVMY) [compound 65] | 0.0 | 1.3 |  | 
66 (VPADALAVWCDVMY) [compound 66] | 0.0 | 1.3 |  | 
67 (VPADDLAFWCHVMY) [compound 67] | 0.0 | 1.3 |  | 
68 (VPSDDLASWCHVMY) [compound 68] | 0.0 | 1.4 |  | 
69 (VPSADLESWCHVMY) [compound 69] | 0.0 | 1.6 |  | 
70 (AASDDLEAWCHVMY) [compound 70] | 0.0 | 1.4 |  | 
71 (APSDDLASWCHVMY) [compound 71] | 0.0 | 1.1 |  | 
72 (APADDLEFWCHVMY) [compound 72] | 0.0 | 1.2 |  | 
73 (APSDDLAAWCHVMY) [compound 73] | 0.0 | 1.3 |  | 
74 (APADDLAFWCHVVY) [compound 74] | 0.0 | 1.3 |  | 
75 (APSDDLEAWCDVMY) [compound 75] | 0.0 | 1.3 |  | 
76 (VPSDDLEAWCDVMY) [compound 76] | 0.0 | 1.3 |  | 
77 (AASDDLAFWCHVMY) [compound 77] | 0.0 | 1.1 |  | 

Substance | HERCEPTIN S/W [1] | HERCEPTIN S/N [1] | effect of N-terminal truncation on dFz7-21 activity ([2]; lacking the 2 N-terminal residues) | IC50 compared with dFz7-21 ([2]; text to Table 17)
78 (VPADDLASWCDVMY) [compound 78] | 0.1 | 1.9 |  | 
79 (LPSADLESWCHVMY) [compound 79] | 0.0 | 1.4 |  | 
80 (AAADDLAFWCHVMY) [compound 80] | 0.0 | 1.4 |  | 
81 (LASDDLEFWCHVMY) [compound 81] | 0.0 | 1.2 |  | 
82 (LPAADLAAWCHVMY) [compound 82] | 0.0 | 1.2 |  | 
83 (VPSADLETWCHVMY) [compound 83] | 0.0 | 1.4 |  | 
84 (LPADDLAAWCHVMY) [compound 84] | 0.0 | 1.4 |  | 
85 (PPADDLAFWCDVMY) [compound 85] | 0.0 | 1.1 |  | 
86 (VASDDLASWCHVVY) [compound 86] | 0.0 | 1.2 |  | 
87 (AAADDVASWCHVMY) [compound 87] | 0.0 | 1.3 |  | 
88 (VAADDLAFWCDVMY) [compound 88] | 0.0 | 1.2 |  | 
89 (APADDLEFWCHAMY) [compound 89] | 0.0 | 1.4 |  | 
90 (APADDLAFWCDVMY) [compound 90] | 0.0 | 0.9 |  | 
91 (APSDDLAFWCDVMY) [compound 91] | 0.0 | 0.7 |  | 
92 (LPADDLAFWCDVMY) [compound 92] | 0.0 | 0.7 |  | 
93 (AAADDLAFWCDVMY) [compound 93] | -0.2 | 0.4 |  | 
95 (VPSDDLEFWCAVMY) [compound 95] | 0.0 | 1.2 |  | 
96 (APADDLESWCHVMY) [compound 96] | 0.1 | 2.1 |  | 
97 (APSDDLAFWCHVVY) [compound 97] | 0.1 | 2.1 |  | 
98 (AAADDLAAWCHVVY) [compound 98] | 0.1 | 2.2 |  | 
SDDLEFWCHVMY [dFz7-21-Δ2] |  |  | did not interfere | comparable to that of dFz7-21
